Experimental data from patent US8969389B2, “Substituted 6-methylnicotinamides as mGluR5 positive allosteric modulators” (Vanderbilt University, priority 2010, dated 2015).

Target: T1, rat mGluR5 (Rattus norvegicus, UniProt P31424)
T1 construct: expressed in transfected cells; host or cells: HEK (human embryonic kidney) cells
Assay: Potentiation of glutamate response in HEK cells transfected with rat mGluR5 (Ca2+ fluorescence, FDSS)
Assay type: cell-based
Settings: HEK cells transfected with rat mGluR5; read-out: rmGlu5 PAM EC50
Method: (§1) Human embryonic kidney (HEK) cells transfected with rat mGluR5 were plated in clear bottom assay plates for assay in a Functional Drug Screening System (FDSS). In the alternative assay, HEK cells transfected with human mGluR5 (H10H cell line) were plated for assay in the FDSS. […] The cells were loaded with a Ca^2+-sensitive fluorescent dye (e.g., Fluo-4), and the plates were washed and placed in the FDSS instrument. After establishment of a fluorescence baseline for twelve seconds, the compounds of the present invention were added to the cells, and the response in cells was measured. Five minutes later, an mGluR5 agonist (e.g., glutamate, 3,5-dihydroxyphenylglycine, or quisqualate) was added to the cells, and the response of the cells was measured. Potentiation of the agonist response of mGluR5 by the compounds in the present invention was observed as an increase in response to non-maximal concentrations of agonist (here, glutamate) in the presence of compound compared to the response to agonist in the absence of compound.
(§2) The above described assay operated in two modes. In the first mode, a range of concentrations of the present compounds were added to cells, followed by a single fixed concentration of agonist. If a compound acted as a potentiator, an EC50 value for potentiation and a maximum extent of potentiation by the compound at this concentration of agonist was determined by non-linear curve fitting. In the second mode, several fixed concentrations of the present compounds were added to various wells on a plate, followed by a range of concentrations of agonist for each concentration of present compound; the EC50 values for the agonist at each concentration of compound were determined by non-linear curve fitting. A decrease in the EC50 value of the agonist with increasing concentrations of the present compounds (a leftward shift of the agonist concentration-response curve) is an indication of the degree of mGluR5 potentiation at a given concentration of the present compound. An increase in the EC50 value of the agonist with increasing concentrations of the present compounds (a rightward shift of the agonist concentration-response curve) is an indication of the degree of mGluR5 antagonism at a given concentration of the present compound. The second mode also indicates whether the present compounds also affect the maximum response to mGluR5 to agonists.

T1 sequence (P31424 21-1203): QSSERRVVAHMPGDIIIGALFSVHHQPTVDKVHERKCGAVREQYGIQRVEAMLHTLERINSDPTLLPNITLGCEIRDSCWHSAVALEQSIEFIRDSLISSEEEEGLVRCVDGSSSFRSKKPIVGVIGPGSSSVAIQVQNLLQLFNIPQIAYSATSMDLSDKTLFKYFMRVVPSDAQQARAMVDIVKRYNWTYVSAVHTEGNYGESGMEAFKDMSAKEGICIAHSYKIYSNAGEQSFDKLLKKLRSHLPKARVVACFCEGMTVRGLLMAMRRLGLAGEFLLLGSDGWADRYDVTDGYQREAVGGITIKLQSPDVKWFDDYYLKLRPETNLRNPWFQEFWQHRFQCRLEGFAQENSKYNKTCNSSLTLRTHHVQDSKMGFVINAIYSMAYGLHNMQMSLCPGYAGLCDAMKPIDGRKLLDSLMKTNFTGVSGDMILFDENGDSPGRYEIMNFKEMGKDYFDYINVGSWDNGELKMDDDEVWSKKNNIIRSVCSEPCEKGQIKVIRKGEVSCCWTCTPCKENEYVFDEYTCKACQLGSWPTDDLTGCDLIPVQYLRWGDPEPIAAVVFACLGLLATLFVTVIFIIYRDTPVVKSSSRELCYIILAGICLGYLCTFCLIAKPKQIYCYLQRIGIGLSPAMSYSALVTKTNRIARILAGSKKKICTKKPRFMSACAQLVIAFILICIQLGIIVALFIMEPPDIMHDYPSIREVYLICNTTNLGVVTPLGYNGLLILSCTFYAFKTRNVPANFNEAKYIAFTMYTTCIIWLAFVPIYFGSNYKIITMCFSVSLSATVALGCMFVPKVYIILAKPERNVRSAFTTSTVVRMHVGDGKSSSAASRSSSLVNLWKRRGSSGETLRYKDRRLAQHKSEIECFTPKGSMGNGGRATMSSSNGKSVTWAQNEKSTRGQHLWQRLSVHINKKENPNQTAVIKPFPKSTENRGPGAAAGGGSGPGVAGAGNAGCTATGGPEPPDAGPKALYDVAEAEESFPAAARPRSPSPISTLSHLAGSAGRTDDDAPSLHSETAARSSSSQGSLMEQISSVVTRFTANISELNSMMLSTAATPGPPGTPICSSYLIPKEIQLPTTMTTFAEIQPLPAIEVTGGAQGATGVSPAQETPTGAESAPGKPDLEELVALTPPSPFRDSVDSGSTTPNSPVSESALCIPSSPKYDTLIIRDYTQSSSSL

Row | Compound | EC50 [µM]
1 | C[C@@H](NC(=O)c1ccc(COc2cc(F)cc(F)c2)nc1)C1CCCCC1 [drawing 81] | 0.309
2 | O=C(NC1CCc2ccccc21)c1ccc(COc2ccccc2)nc1 (centres unmarked) [drawing 138] | > 10
3 | C[C@H](NC(=O)c1ccc(COc2cc(F)cc(F)c2)nc1)C1CCCCC1 [drawing 149] | > 10

Continued, values first:

Row | EC50 [µM] | Compound
4 | 0.257 | C[C@@H](NC(=O)c1ccc(COc2ccccc2)nc1)C1CCCCC1 [drawing 78]
5 | 4.5 | C[C@@H](NC(=O)c1ccc(COc2cccnc2)nc1)C1CCCCC1 [drawing 107]
6 | 4.9 | C[C@@H](NC(=O)c1ccc(COc2cccnc2)nc1)C1CCCCC1 [drawing 109]
7 | > 10 | O=C(NC1CCc2ccccc21)c1ccc(COc2ccccc2)nc1 (centres unmarked) [drawing 113]
8 | > 10 | C[C@H](NC(=O)c1ccc(COc2cccc(F)c2)nc1)C1CCCCC1 [drawing 152]

Target: T2, human mGluR5 (Homo sapiens, UniProt P41594)
T2 construct: expressed in transfected cells; host or cells: HEK cells, H10H cell line
T2 sequence (P41594 21-1212): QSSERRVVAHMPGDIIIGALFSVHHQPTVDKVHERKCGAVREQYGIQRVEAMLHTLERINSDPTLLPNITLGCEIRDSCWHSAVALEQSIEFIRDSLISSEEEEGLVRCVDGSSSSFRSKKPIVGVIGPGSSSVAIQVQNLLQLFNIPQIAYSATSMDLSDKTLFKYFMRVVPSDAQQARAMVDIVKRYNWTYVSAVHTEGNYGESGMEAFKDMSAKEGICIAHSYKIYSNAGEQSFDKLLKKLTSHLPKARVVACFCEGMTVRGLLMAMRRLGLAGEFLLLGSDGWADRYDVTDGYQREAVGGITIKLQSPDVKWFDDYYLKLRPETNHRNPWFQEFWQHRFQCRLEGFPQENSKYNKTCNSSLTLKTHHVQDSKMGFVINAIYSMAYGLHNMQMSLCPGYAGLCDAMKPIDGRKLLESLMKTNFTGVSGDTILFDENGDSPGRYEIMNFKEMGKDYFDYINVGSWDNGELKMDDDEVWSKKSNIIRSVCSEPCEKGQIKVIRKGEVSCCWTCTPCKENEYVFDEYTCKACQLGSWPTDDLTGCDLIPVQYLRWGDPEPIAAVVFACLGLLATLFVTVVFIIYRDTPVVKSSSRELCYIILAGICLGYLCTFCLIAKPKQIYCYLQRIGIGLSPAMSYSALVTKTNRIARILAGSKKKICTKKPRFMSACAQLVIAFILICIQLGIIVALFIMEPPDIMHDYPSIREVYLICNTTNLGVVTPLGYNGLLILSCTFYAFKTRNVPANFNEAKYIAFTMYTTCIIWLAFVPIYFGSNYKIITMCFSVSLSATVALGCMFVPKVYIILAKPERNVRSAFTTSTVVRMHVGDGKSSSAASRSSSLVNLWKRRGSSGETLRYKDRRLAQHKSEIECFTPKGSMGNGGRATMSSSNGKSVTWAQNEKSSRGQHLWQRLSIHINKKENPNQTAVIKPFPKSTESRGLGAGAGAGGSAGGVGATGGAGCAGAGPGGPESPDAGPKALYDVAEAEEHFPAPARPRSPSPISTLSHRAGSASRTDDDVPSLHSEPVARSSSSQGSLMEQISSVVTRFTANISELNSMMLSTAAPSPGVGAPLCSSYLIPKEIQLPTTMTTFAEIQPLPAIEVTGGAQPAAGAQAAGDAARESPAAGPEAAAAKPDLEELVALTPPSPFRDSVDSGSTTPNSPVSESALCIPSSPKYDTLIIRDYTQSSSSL
Assay: Potentiation of glutamate response in HEK cells transfected with human mGluR5 (H10H cell line), Ca2+ fluorescence, FDSS
Assay type: cell-based
Settings: read-out: hmGluR5 EC50 (H10H cell line)
Method: as §1, §2

Row | Compound | EC50 [µM]
9 | O=C(N[C@H]1C[C@@H]2CC[C@H]1C2)c1ccc(COc2cccc(F)c2)nc1 | 0.55
10 | O=C(N[C@H]1C[C@H]2CC[C@@H]1C2)c1ccc(COc2cccc(F)c2)nc1 | 0.73
11 | C[C@@H](NC(=O)c1ccc(COc2ccnc(Cl)c2)nc1)C1CCCCC1 | 1.5
12 | CC(NC(=O)c1ccc(COc2cccc(F)c2)nc1)C1CCCCO1 (centres unmarked) | 1.9
13 | C[C@@H](NC(=O)c1ccc(COc2ccnc(Cl)c2)nc1)C(C)(C)C | 2.3
14 | CC(NC(=O)c1ccc(COc2cccc(F)c2)nc1)C(F)(F)F (centres unmarked) | 3.2
15 | CC(NC(=O)c1ccc(COc2cccc(F)c2)nc1)c1nccs1 (centres unmarked) | > 10
16 | CC1(O)CC(NC(=O)c2ccc(COc3cccc(F)c3)nc2)C1 (centres unmarked) | > 10
17 | O=C(NC(c1ccccn1)C(F)(F)F)c1ccc(COc2cccc(F)c2)nc1 (centres unmarked) | > 10
18 | O=C(NC1(c2ccccn2)CC1)c1ccc(COc2cccc(F)c2)nc1 | > 10
19 | CC1(CCNC(=O)c2ccc(COc3cccc(F)c3)nc2)COC1 | > 10
20 | C[C@@H](NC(=O)c1ccc(COc2cncc(Cl)c2)nc1)C1CCCCC1 | > 10
21 | Cc1cc(OCc2ccc(C(=O)N[C@H](C)C3CCCCC3)cn2)ccn1 | > 10
22 | C[C@@H](NC(=O)c1ccc(COc2cncc(F)c2)nc1)C(C)(C)C | > 10
23 | C[C@@H](NC(=O)c1ccc(COc2cncc(C(F)(F)F)c2)nc1)C(C)(C)C | > 10
24 | O=C(NC1CC(O)(C(F)(F)F)C1)c1ccc(COc2cccc(F)c2)nc1 (centres unmarked) [drawing 173] | > 10

More lines, now with the values ahead:

Row | EC50 [µM] | Compound
25 | 0.17 | O=C(N[C@@H]1C[C@H]2CC[C@@H]1C2)c1ccc(COc2cccc(F)c2)nc1
26 | 0.44 | CC(NC(=O)c1ccc(COc2cccc(F)c2)nc1)C1CCCOC1 (centres unmarked)
27 | 2.7 | C[C@@H](NC(=O)c1ccc(COc2cncc(F)c2)nc1)C1CCCCC1
28 | > 10 | O=C(N[C@@H]1C[C@@H]2CC[C@H]1C2)c1ccc(COc2cccc(F)c2)nc1
29 | > 10 | O=C(NC(c1ccc(F)cc1)C(F)(F)F)c1ccc(COc2cccc(F)c2)nc1 (centres unmarked)
30 | > 10 | C[C@@H](NC(=O)c1ccc(COc2cncc(C(F)(F)F)c2)nc1)C1CCCCC1
31 | > 10 | C[C@@H](NC(=O)c1ccc(COc2cncc(Cl)c2)nc1)C(C)(C)C
32 | > 10 | Cc1cc(OCc2ccc(C(=O)N[C@H](C)C(C)(C)C)cn2)ccn1
33 | > 10 | CC(NC(=O)c1ccc(COc2cccc(F)c2)nc1)C(C)(C)O (centres unmarked)
34 | > 10 | CC1(CNC(=O)c2ccc(COc3cccc(F)c3)nc2)COC1
35 | > 10 | C[C@@H](N(C)C(=O)c1ccc(COc2cccc(F)c2)nc1)C(C)(C)C
36 | > 10 | C[C@@H](NC(=O)c1ccc(COc2cncnc2)nc1)C(C)(C)C
37 | > 10 | O=C(NC1CC(O)(C(F)(F)F)C1)c1ccc(COc2cccc(F)c2)nc1 (centres unmarked) [drawing 172]
38 | > 10 | C[C@H](NC(=O)c1ccc(COc2cccc(F)c2)nc1)C(C)(C)C [drawing 189]
